Experimental data: patent US20240294478A1, “ANTI-CANCER COMPOUNDS AND METHODS OF USE” (YALE UNIVERSITY, priority 2021, published 2024)

Tested on: large MGMT−/MMR+ and MGMT−/MSH6− LN229 flank tumors
Assay: Flank tumor third study: large tumors
Format: in vivo, mouse
Settings: 25 mg/kg PO MWF x 3 weeks
Text: FIGS. 9A-91: KL-50 is safe and efficacious on both MGMT−/MMR+ and MGMT−/MMR-flank tumors over a wide range of treatment regimens and conditions. […] (FIG. 9C) Mean body weight of mice during LN229 flank tumor experiments. (FIG. 9D) Kaplan-Meier analysis of LN229 MGMT−/MMR− xenograft flank tumor-bearing mice to determine survival rate based on death, removal from study if mouse body weight loss exceeded 20% of initial body weight, or if tumor volume exceeded 2000 mm^3. […] (FIGS. 9H-91) Xenograft LN229 MGMT−/MMR+ and LN229 MGMT−/MSH6—flank tumors with a larger average starting tumor size of −400 mm^3 and −350 mm^3 respectively, treated with 3 weekly cycles of P.O administration of 10% cyclodextrin (n=4) or KL-50 (n=4, 3 cycles of 25 mg/kg on Monday, Wednesday, and Friday). The study period was limited by control groups which had to be euthanized for exceeding the ethical maximum allowed tumor size, thus ending the study. In all panels, points, mean; error bars, SEM; *, P<0.05; **, P<0.01; ***, P<0.001; ****, P<0.0001; ns, not significant.
The third study involved MGMT−/MMR+ and MGMT−/MSH6—(shMSH6) LN229 cells. Mice tumors were allowed to grow to a larger average starting volume of −350 mm^3 before they were randomized and administered either KL-50 (25 mg/kg MWF×3 weeks) or vehicle (10% cyclodextrin) by oral gavage. […]

Structure (SMILES): NC(=O)c1ncn2c(=O)n(CCF)nnc12 [KL-50]
- growth of large (350-400 mm^3) tumors: potently suppressed the growth
